Common to all, as to test: NCI tumour cell line growth inhibition, 48 h
For assay [1], the system named is HCT-116 colon.
The test system of assay [2] is TK-10 renal.
The test system of assay [3] is HOP-62 NSCLC.
The subject of assay [4] is SK-MEL-2 melanoma.
The test system of assay [5] is EKVX NSCLC.
The subject of assay [6] is CAKI-1 renal.
For assay [7], the system named is HCT-15 colon.
The subject of assay [8] is SK-MEL-28 melanoma.
Assay [9] deals with HS 578T breast.
For assay [10], the system named is SNB-75 CNS.

In PubChem BioAssay (NCI) one finds TGI and GI50 data, which are given here for 15 molecules.

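Values below derive from 48-hour exposures of cells grown in 96-well plates, with endpoints linearly interpolated between the two concentrations bracketing the appropriate inhibition level. At the GI50, growth is halved. TGI denotes the concentration required for complete inhibition of growth.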

Regarding `CSC(SC)=C(C(=O)O)P(=O)(O)O`, the TGI in assay [1], in [2], in assay [3], in assay [4], in [5] and in assay [6] was more than 100 µM each time. Also, the TGI in assay [7], in assay [8] and in assay [9] was more than 100 µM each time.

With `CSc1cc(=O)n2c3ccccc3c3ccnc1c32`, the TGI in assay [1] was more than 100 µM; in [3], more than 100 µM; in assay [4], more than 100 µM; in [5] it was 56.8 µM; in assay [7], more than 100 µM; in assay [8], more than 100 µM. The molecule also showed a TGI in [10] of more than 94.3 µM.

With `O=C1C=CC(=O)N1n1c(-c2ccccc2)n[nH]c1=O`, the TGI in assay [1], in assay [2], in assay [3], in assay [4], in assay [5] and in [6] was more than 100 µM each time. Besides, the TGI in assay [7] and in assay [9] was more than 100 µM throughout.

With `S=C(N/N=C\C(=N/NC(=S)N1CCCCC1)c1ccccc1)N1CCCCC1`, the TGI in assay [1] amounted to 6.53 µM; in [2], 3.25 µM; in [3] it was 5.83 µM; in [5], 3.31 µM; in assay [6], 4.66 µM; in assay [7], 5.1 µM. The TGI in assay [8] worked out at 3.65 µM; in [10], 3.72 µM; in assay [9], 5.23 µM.

On to `COC(=O)[C@@H]1CCCCC[C@H]2C(CO)=C(C)C(=O)C12` (stereo partly specified), for which the TGI in assay [1], in [2], in [3], in [4], in [5] and in assay [6] was more than 100 µM throughout. The TGI in [7], in assay [8] and in assay [10] was more than 100 µM in each case.

For the molecule `O=S(=O)(O)c1ccc(N=Nc2ccc(N=Nc3ccc(/C=C/c4ccc(N=[N+]([O-])c5ccc(/C=C/c6ccc(N=Nc7ccc(N=Nc8ccc(S(=O)(=O)O)cc8)cc7)cc6S(=O)(=O)O)c(S(=O)(=O)O)c5)cc4S(=O)(=O)O)c(S(=O)(=O)O)c3)cc2)cc1`, the TGI in [1], in assay [3], in [4], in assay [5], in [7] and in [8] was more than 100 µM throughout. The same molecule showed a TGI in assay [10] of more than 100 µM.

For the molecule `O=c1c(Cc2ccc(Cl)cc2)nnc2sc(-c3ccc(-c4ccc(F)c(Cl)c4)o3)nn12`, the TGI in assay [1], in assay [2], in assay [3], in assay [4], in assay [5] and in [6] was more than 100 µM throughout. In addition, the TGI in assay [7], in assay [8] and in assay [9] was more than 100 µM throughout.

Consider `N#CC1(O)CCCCCCCCCCC1`, for which the TGI in assay [1], in assay [2], in assay [3], in assay [4], in assay [5] and in assay [6] was more than 100 µM in each case. Also, the TGI in [7], in assay [8] and in assay [9] was more than 100 µM in each case.

As for `CC1(C)OCC2OC3([C@@H]4OC(C)(C)O[C@H]4CO)OC(C)(C)OC3C2O1` (stereo partly specified), the TGI in [1], in assay [3], in [4], in assay [5], in assay [6] and in assay [7] was more than 100 µM each time. Further, the TGI in assay [8] and in assay [10] was more than 100 µM each time.

For `COc1cc2cc(C(=O)N3C[C@H](CCl)c4c3cc(N)c3ccccc43)[nH]c2c(OC)c1OC`, the figures for the GI50 in assay [1], in assay [3] and in [10] were 0.005 µM, 0.005 µM and 0.0123 µM, respectively. The TGI in assay [1] was 0.6 µM; in assay [2], 10.3 µM; in [3], 0.112 µM; in assay [5], 0.0462 µM; in assay [6], less than 0.005 µM; in assay [7] it was more than 50 µM. This molecule also showed a TGI in assay [10] of 0.0458 µM.

Turning to `C=C1C(OC2O[C@@H]3O[C@@]4(C)CC[C@H]5[C@H](C)CC[C@@H](C2=C)[C@@]35O4)O[C@@H]2O[C@@]3(C)CC[C@H]4[C@H](C)CC[C@@H]1[C@@]24O3` (stereo partly specified), the TGI in assay [1], in assay [2], in assay [3], in assay [4], in assay [5] and in assay [6] was more than 50 µM in each case. The TGI in assay [7], in assay [8] and in assay [9] was more than 50 µM in each case.

Take `COc1ccc(Nc2nc(N)c(C(=O)c3c[nH]c4ccccc34)s2)cc1`: the TGI was 6.58 µM in assay [1]; more than 30.7 µM in [2]; more than 71.4 µM in assay [3]; more than 72.5 µM in [4]; more than 100 µM in assay [5]; more than 100 µM in assay [6]. Moreover, the TGI is 8.91 µM in assay [7], more than 91.6 µM in assay [8] and 6.56 µM in assay [10].

Regarding `N#C/C(C(=O)Nc1ccc(Cl)cc1)=C(/N)N1CCCC1`, the TGI in assay [1], in [3], in [4], in assay [5], in assay [6] and in [7] was more than 100 µM each time. The TGI in [8] and in assay [10] was more than 100 µM in each case.

As for `C=C1OC(c2ccccc2NC)=NC12CCCCC2`, the TGI in assay [1], in assay [2], in [3], in [5], in assay [6] and in assay [7] was more than 100 µM in each case. For the same molecule, the TGI in assay [8] and in assay [9] was more than 100 µM throughout.

On to `O=C1N=C2SC(=S)NC(=S)N2NC12c1ccccc1-c1ccccc12`, for which the TGI in [2], in [3], in assay [5], in assay [6], in assay [7] and in assay [10] was more than 10 µM each time. For the same molecule, the TGI in assay [9] was more than 10 µM.
